From patent US20050070500A1, “Method of modulating release of saccharides and uses thereof” (priority 2001, published 2005)
Read-outs that look alike come from different tables or passages of the source.

Tests used:
[1] = subcutaneous; patient not affected by ACTH or Prednisone; several weeks of treatment; cited from earlier work
in vivo = conditions: male, beagle, dog
Excerpt: This study was undertaken to determine the safety of Products X and Y, and to determine the pharmacokinetic profiles of Products X, Y, and a commercially available oral glucosamine formulation (Glucosamine) following a single oral and intravenous administration to beagle dogs. The pharmacokinetic profiles were examined for indications of sustained or slow release of glucosamine by Products X and Y.
A total of nine (9) male Beagle dogs were used during this study. The animals were assigned to three treatment groups of 3 animals/group. Group 1 received low dose Products X, Y and Glucosamine by oral administration on Days 1, 8 and 15, respectively. Group 2 animals received high dose Products X and Y by oral administration on Days 1 and 8, respectively, and Group 3 animals received low dose Products X and Y by intravenous injection on Days 1 and 8, respectively. Low and high dose animals were administered nominal dose levels of 21.4 mg/kg and 214 mg/kg, respectively. These levels approximated 1× and 10× the standard daily oral glucosamine consumption (1500 mg) for an average human (70 kg standard body weight). The commercial glucosamine was assumed to contain 100% active ingredient.
The following parameters were recorded throughout the study: mortality, clinical signs, body weight and clinical pathology (hematology, coagulation and clinical chemistry). Serial blood samples were collected from all animals for pharmacokinetic profiling following each dosing.
Samples were collected via the jugular vein, at: 0 (pre-dose), 15, 30, 60, 120 minutes post-dose. A 5 minute post-dose sample was included for Group 3.

[2] = dogs, cited from earlier work
[3] = humans, cited from earlier work

| Structure (SMILES) | symptoms of Crohn's Disease [1] | time of peak serum glucosamine level post-dose (in vivo) [min] | AUC (in vivo; po, 21.4 mg/kg) [ng·h/mL] | concentration at 120 minutes (in vivo; po, 21.4 mg/kg) [ng/mL] | ratio of glucosamine delivered into the serum (oral glucosamine = 100) (in vivo; po, 21.4 mg/kg) | group mean serum glucosamine level at 120 minutes post-dose (in vivo; po, 21.4 mg/kg, 120 minutes) [ng/mL] | glucosamine found in urine ([2]; after 144 hours) | gastrointestinal absorption [2] | glucosamine found in urine ([3]; after 144 hours) [%] | gastrointestinal absorption [3] [%] |
| --- | --- | --- | --- | --- | --- | --- | --- | --- | --- | --- |
| Cl.N[C@H]1C(O)O[C@H](CO)[C@@H](O)[C@@H]1O (stereo partly drawn) [D-glucosamine-HCl] | symptoms stopped | – | – | – | – | – | – | – | – | – |
| N[C@H]1C(O)O[C@H](CO)[C@@H](O)[C@@H]1O (stereo partly shown) [Glucosamine, glucosamine] | – | 60 | 1650 | 533 ± 188 | 100 | 533 | about 10% | about 87% | ~11 | ~90 |
